Experimental data taken from patent US20240239806A1, “COMPOUNDS, COMPOSITIONS AND METHODS OF TREATING DISORDERS” (Chengdu Anticancer Bioscience, Ltd., priority 2021, published 2024).
pEC50, pIC50: −log10 of the molar value. Where two headings read alike, the source gives them in different places.

How the values were obtained:
Type in all cases: cell-based
[1] = test system: A549; assay: MTT assay of cellular proliferation; conditions: Homo sapiens, 50% inhibition of cellular proliferation
Experimental: (§1) Six lung cancer cell lines (NCI-H23, NCI-H460, NCI-H596, NCI-H2170, Calu-6 and A549), two colon cancer cell lines (HCT116 and SW460), one breast cancer cell line MDA-MB-231, one gastric cancer cell line NCI-N87, one prostate cancer cell line DU145, one cervical cancer cell line Hela, and one glioblastoma cell line T98G were obtained from ATCC. The T2 HCC cell line was derived from a mouse liver cancer model initiated by a transgene of MYC. All cell lines were cultured in DMEM (Gibco, Cleveland, TN, USA) supplemented with 5% fetal bovine serum (Gibco), penicillin (100 U/mL)—streptomycin (100 μg/mL) (Gibco, Cat. No. 15140-122), 2 mM L-glutamine (Gibco, 200 mM solution, Cat. No. 25030081), and 1 mM sodium pyruvate (Gibco, 100 mM solution, Cat. No. 11360070) at 37° C. in a humidified incubator that was maintained at 5% CO2.
(§2) The MTT assay measures cellular metabolic activity as a proxy for cell viability and involves the conversion of the water-soluble yellow dye MTT [3-(4,5-dimethylthiazol-2-yl)-2,5-diphenyltetrazolium bromide] into an insoluble purple formazan by the action of mitochondrial reductase. Formazan is then solubilized and its concentration is determined by measuring the optical density (OD) value at a wavelength of 570 nm. The value is in proportional to the number of live cells with excellent linearity up to ˜10^6 cells per well. The MTT assay was used to determine the EC50 value, the concentration of a compound that leads to 50% inhibition of cellular proliferation. Briefly, cells were split when growing to the mid-Log phase. Cells in 100 μL of culture medium were seeded into each well of 96-well microplates and cultivated for 15-24 hours to reach a confluence of 20-30% and were then exposed to drugs at concentrations ranging from 1 nM to 30 μM. At the endpoint, 20 μL of a MTT stock solution in DMSO (5 mg/mL) was added to each well that contains 100 μL of DMEM. The microplates were left in the cell culture incubator for 3-4 h before subjected to solubilization and determination of formazan at A570 in a microplate reader (BioTek ELX808iu). […] Therefore, these compounds might hold a broad utility in the treatment of a large variety of human malignancies.

[2] = test system: MDA-MB-231; assay: MTT assay of cellular proliferation; conditions: Homo sapiens; MDA-MB-231, MTT, 50% inhibition of cellular proliferation
Experimental: as §1, §2

[3] = test system: NCI-H23; assay: MTT assay of cellular proliferation; conditions: Homo sapiens, 50% inhibition of cellular proliferation
Experimental: as §1, §2

[4] = test system: NCI-N87; assay: MTT assay of cellular proliferation; conditions: Homo sapiens, 50% inhibition of cellular proliferation
Experimental: as §1, §2

[5] = test system: T2 HCC; assay: MTT assay of cellular proliferation; conditions: Mus musculus, 50% inhibition of cellular proliferation
Experimental: as §1, §2

[6] = test system: Hela; assay: MTT assay of cellular proliferation; conditions: Homo sapiens, 50% inhibition of cellular proliferation
Experimental: as §1, §2

[7] = test system: HCT116; assay: MTT assay of cellular proliferation; conditions: Homo sapiens, HCT-116, 50% inhibition of cellular proliferation
Experimental: as §1, §2

[8] = test system: SW480; assay: MTT assay of cellular proliferation; conditions: Homo sapiens, 50% inhibition of cellular proliferation
Experimental: as §1, §2

[9] = test system: NCI-H23; assay: MECP in cancer cell line; conditions: Homo sapiens
Experimental: as §1, with “CO2. […]” for “CO2.”

[10] = test system: NCI-N87; assay: MECP in cancer cell line; conditions: Homo sapiens
Experimental: as §1, with “CO2. […]” for “CO2.”

[11] = test system: RPEMYC^H2B-GFP cells; assay: Phenotypic screening assay (mitotic arrest, polyploidy); conditions: 1 nM to 30 μM; for pIC50: read-out: Proliferative arrest (>50%)
Procedure, shortened: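 RPE cells expressing MYC and H2B-EGFP treated with compound at 1 nM–30 μM; mitotic index scored at 24 h and polyploidy (DNA content) at 48 h by automated imaging, with reads at 24, 48 or 72 h. Hits show transient mitotic arrest followed by polyploid accumulation.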

[12] = test system: A549; assay: MECP in cancer cell line; conditions: Homo sapiens
Experimental: as §1
(§3) We have previously developed a mechanism-informed phenotypic screening assay to identify novel antimitotic agents. Equipped with a prior understanding of the versatile functions of the chromosomal passenger protein (CPP) complex in orchestrating karyokinesis and cytokinesis, the screening assay is to score for phenotypes typically seen when the CPP complex is disabled. Specifically, the parameters for a positive hit are a temporary elevation of mitotic index (MI) at 24 hours of drug treatment and an accumulation of polyploid cells at 48 hours of drug treatment, indicative of mitotic arrest and cytokinetic failure respectively. These parameters exclude compounds that elicit only a prolonged arrest of cells in mitosis, a phenotype typically provoked by spindle toxins. The screening procedure is briefly summarized here. RPEMYC^H2B-GFP cells engineered to express a Histone 2B-EGFP fusion protein were passaged as batches of 96-well plates, 18-24 hours before exposure to the chemical compounds of the present disclosure at concentrations from 1 nM to 30 μM. At 24, 48 or 72 hours after initiation of treatment, cells were analyzed for either an arrest in mitosis or a change in DNA content by GE IN-Cell Analyzer 2000. As set forth in Table 2 below, a value of greater than or equal to 1 nM and less than or equal to 1.0 μM is marked “A”; a value greater than 1.00 μM and less than or equal to 10.0 μM is marked “B”; a value greater than 10.0 μM and less than or equal to 30.0 μM is marked “C”; and a value greater than 30.0 μM is marked “D.”

[13] = test system: MDA-MB-231; assay: MECP in cancer cell line; conditions: Homo sapiens
Experimental: as §1, §3

[14] = test system: T2 HCC; assay: MECP in cancer cell line; conditions: Mus musculus
Experimental: as §1, §3

[15] = test system: Hela; assay: MECP in cancer cell line; conditions: Homo sapiens
Experimental: as §1, §3

[16] = test system: HCT116; assay: MECP in cancer cell line; conditions: Homo sapiens, HCT-116
Experimental: as §1, §3

[17] = test system: SW480; assay: MECP in cancer cell line; conditions: Homo sapiens
Experimental: as §1, §3

[18] = read-out: Min. Effective conc. for Polyploidy (≥5%)

| pEC50 [1] | pEC50 [2] | pEC50 [3] | pEC50 [5] | pEC50 [6] | pEC50 [7] | pEC50 [8] | Compound | pEC50 [4] | minimal effective concentration [9] [µM] | minimal effective concentration [10] [µM] | minimal effective concentration [11, 18] [µM] | minimal effective concentration ([11]; read-out: Mitotic Arrest (≥5%)) [µM] | pIC50 [11] | minimal effective concentration [12] [µM] | minimal effective concentration [13] [µM] | minimal effective concentration [14] [µM] | minimal effective concentration [15] [µM] | minimal effective concentration [16] [µM] | minimal effective concentration [17] [µM] |
| --- | --- | --- | --- | --- | --- | --- | --- | --- | --- | --- | --- | --- | --- | --- | --- | --- | --- | --- | --- |
| 6.00 to 9.00 | 6.00 to 9.00 | 6.00 to 9.00 | 6.00 to 9.00 | 6.00 to 9.00 | 6.00 to 9.00 | 6.00 to 9.00 | COc1cc(NC(C)=O)cc(Oc2ccnc3ccc(F)cc23)c1 [Compound 20, N-(3-((6-fluoroquinolin-4-yl)oxy)-5-methoxyphenyl)acetamide] | 6.00 to 9.00 | 0.001 to 1 | 0.001 to 1 | 0.001 to 1 | 0.001 to 1 | 6.00 to 9.00 | 0.001 to 1 | 0.001 to 1 | 0.001 to 1 | 0.001 to 1 | 0.001 to 1 | 0.001 to 1 |
| 6.00 to 9.00 | 6.00 to 9.00 | 6.00 to 9.00 | 6.00 to 9.00 | 6.00 to 9.00 | 6.00 to 9.00 | 6.00 to 9.00 | COc1cc(NC(C)=O)cc(Oc2ccnc3ccccc23)c1 [Compound 14, N-(3-methoxy-5-(quinolin-4-yloxy)phenyl)acetamide] | 6.00 to 9.00 | 0.001 to 1 | 0.001 to 1 | 0.001 to 1 | 0.001 to 1 | 6.00 to 9.00 | 0.001 to 1 | 0.001 to 1 | 0.001 to 1 | 0.001 to 1 | 0.001 to 1 | 0.001 to 1 |
| 6.00 to 9.00 | 6.00 to 9.00 | 6.00 to 9.00 | 6.00 to 9.00 | 6.00 to 9.00 | 6.00 to 9.00 | 5.00 to 6.00 | COc1cc(Oc2ccnc3ccc(F)cc23)cc(-n2cccn2)c1 [Compound 19, 6-fluoro-4-(3-methoxy-5-(1H-pyrazol-1-yl)phenoxy)quinoline] | 6.00 to 9.00 | 0.001 to 1 | 0.001 to 1 | 0.001 to 1 | 0.001 to 1 | 6.00 to 9.00 | 0.001 to 1 | 0.001 to 1 | 0.001 to 1 | 0.001 to 1 | 0.001 to 1 | 0.001 to 1 |
| 6.00 to 9.00 | 6.00 to 9.00 | 6.00 to 9.00 | 6.00 to 9.00 | 6.00 to 9.00 | 6.00 to 9.00 | 6.00 to 9.00 | COc1cc(NC(C)=O)cc(Oc2ccnc3ccc(Br)cc23)c1 [Compound 22, N-(3-((6-bromoquinolin-4-yl)oxy)-5-methoxyphenyl)acetamide] | 6.00 to 9.00 | 0.001 to 1 | 0.001 to 1 | 0.001 to 1 | 0.001 to 1 | 6.00 to 9.00 | 0.001 to 1 | 0.001 to 1 | 0.001 to 1 | 0.001 to 1 | 0.001 to 1 | 0.001 to 1 |
